Molecular target: ATP-binding cassette sub-family C member 2 (Homo sapiens, UniProt Q92887)
Assay: TP_TRANSPORTER: transepithelial transport (basal to apical) in MRP2-expressing MDCKII cells
Assay type: functional, cell-based
Conditions: dog, mdck-ii

Sequence of ATP-binding cassette sub-family C member 2 (Q92887 whole entry): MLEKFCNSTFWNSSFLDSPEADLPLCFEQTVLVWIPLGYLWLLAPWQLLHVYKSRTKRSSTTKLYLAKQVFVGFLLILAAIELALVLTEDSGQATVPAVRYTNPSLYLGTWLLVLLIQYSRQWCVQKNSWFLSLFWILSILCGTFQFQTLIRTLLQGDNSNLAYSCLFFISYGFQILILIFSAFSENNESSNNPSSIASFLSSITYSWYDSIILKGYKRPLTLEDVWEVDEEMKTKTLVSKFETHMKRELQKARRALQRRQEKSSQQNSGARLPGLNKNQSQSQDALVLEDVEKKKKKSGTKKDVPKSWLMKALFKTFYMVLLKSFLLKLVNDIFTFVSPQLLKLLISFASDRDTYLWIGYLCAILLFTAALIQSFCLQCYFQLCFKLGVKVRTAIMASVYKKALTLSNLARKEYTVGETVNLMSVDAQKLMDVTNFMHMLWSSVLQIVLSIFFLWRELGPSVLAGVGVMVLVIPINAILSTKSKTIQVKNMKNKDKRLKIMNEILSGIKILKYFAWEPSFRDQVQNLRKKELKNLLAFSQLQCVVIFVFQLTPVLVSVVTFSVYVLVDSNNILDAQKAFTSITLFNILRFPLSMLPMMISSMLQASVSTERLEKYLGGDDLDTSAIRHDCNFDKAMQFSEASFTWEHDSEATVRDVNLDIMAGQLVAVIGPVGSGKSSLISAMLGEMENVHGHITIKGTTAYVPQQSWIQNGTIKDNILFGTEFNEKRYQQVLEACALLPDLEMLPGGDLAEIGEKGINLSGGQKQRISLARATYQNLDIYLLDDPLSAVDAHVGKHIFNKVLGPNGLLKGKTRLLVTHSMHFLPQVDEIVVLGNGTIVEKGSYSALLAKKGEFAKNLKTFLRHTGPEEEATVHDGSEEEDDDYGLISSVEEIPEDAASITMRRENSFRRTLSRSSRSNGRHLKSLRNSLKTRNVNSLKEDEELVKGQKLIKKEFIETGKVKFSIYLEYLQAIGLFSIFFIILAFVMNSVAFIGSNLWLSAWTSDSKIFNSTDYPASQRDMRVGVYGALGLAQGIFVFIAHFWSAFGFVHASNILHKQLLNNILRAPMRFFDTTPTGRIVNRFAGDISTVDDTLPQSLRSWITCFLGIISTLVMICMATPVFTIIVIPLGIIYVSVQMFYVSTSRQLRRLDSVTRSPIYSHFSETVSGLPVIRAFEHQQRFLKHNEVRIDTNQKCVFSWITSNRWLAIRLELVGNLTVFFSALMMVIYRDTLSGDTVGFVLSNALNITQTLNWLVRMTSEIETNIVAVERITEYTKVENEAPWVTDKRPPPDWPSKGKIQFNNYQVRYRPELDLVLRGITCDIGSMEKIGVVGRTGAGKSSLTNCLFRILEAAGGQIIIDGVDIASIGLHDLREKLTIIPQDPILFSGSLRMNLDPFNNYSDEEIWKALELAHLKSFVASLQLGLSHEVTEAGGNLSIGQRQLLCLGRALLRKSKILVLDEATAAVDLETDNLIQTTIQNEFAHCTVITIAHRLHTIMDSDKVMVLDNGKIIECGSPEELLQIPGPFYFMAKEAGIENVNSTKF

Activity: substrate [+]
SMILES: CC(C)(C)NC(=O)[C@@H]1CN(Cc2cccnc2)CCN1C[C@@H](O)C[C@@H](Cc1ccccc1)C(=O)N[C@H]1c2ccccc2C[C@H]1O.O

Reference: ChEMBL document CHEMBL2073796, “Multidrug resistance protein 2 (MRP2) transports HIV protease inhibitors, and transport can be enhanced by other drugs” (AIDS, 2002)
